Test results published in patent US8278338B2 (priority 2004, dated 2012).
Where two headings read alike, the source gives them in different places.

Tests used:
mouse = assay: Formalin test in the mouse (phase 2, chronic pain component); type: in vivo; settings: for ED50: iv, read-out: Inhibition of the nociceptive behaviour versus control, ED50 value
Protocol: (§1) The formalin test (Dubuisson, D. and Dennis, S. G., 1977, Pain, 4, 161-174) represents a model for acute and chronic pain. By means of a single formalin injection into the dorsal side of a rear paw, a biphase nociceptive reaction was induced in freely mobile test animals; the reaction was assessed by observing three behaviour patterns which are clearly distinguishable from one another. The reaction is two-phase: phase 1=immediate reaction (duration up to 10 minutes; shaking of the paw, licking), phase 2=late reaction (after a rest phase; likewise shaking of the paw, licking; duration up to 60 minutes). The first phase reflects a direct stimulation of the peripheral nocisensors with a high spinal nociceptive input or glutamate release (acute pain phase); the second phase reflects a spinal and peripheral hypersensitisation (chronic pain phase). In the studies presented here, the chronic pain component (phase 2) was evaluated.
Formalin was administered subcutaneously in a volume of 20 μl and a concentration of 1% into the dorsal side of the right rear paw of each animal. The specific behavioural changes, such as lifting and shaking of the paw (score 3), were observed and recorded over an observation period of from 21 to 24 minutes after the formalin injection. The size of the group was 10 animals (n=10).
(§2) On the basis of the PR calculations, the activity of the substance was determined in percent as the change relative to a control. The ED50 was determined by means of regression analysis.

human μ-opiate receptor = biological target: T1, human μ-opiate receptor (Homo sapiens, UniProt P35372); assay: Affinity for the human μ-opiate receptor, [3H]-naloxone displacement (SPA) on CHO-K1 receptor membrane preparation; type: binding; settings: for μ-Opioid receptor affinity (% inhibition at 1 μmol./l): 1 μmol./l test substance
T1 construct: purchased Perkin Elmer, Zaventem, Belgium RB-HOM; host or cells: CHO-K1 cells
Protocol: The receptor affinity for the human μ-opiate receptor was determined in a homogeneous batch on microtitre plates. To that end, serial dilutions of the substances to be tested were incubated for 90 minutes at room temperature with a receptor membrane preparation (15-40 μg of protein/250 μl of incubation batch) of CHO-K1 cells, which express the human μ-opiate receptor (RB-HOM receptor membrane preparation from Perkin Elmer, Zaventem, Belgium), in the presence of 1 nmol./l of the radioactive ligand [^3H]-naloxone (NET719, Perkin Elmer, Zaventem, Belgium) and 1 mg of WGA-SPA beads (wheatgerm agglutinin SPA beads from Amersham/Pharmacia, Freiburg, Germany) in a total volume of 250 μl. The incubation buffer used was 50 mmol./l of Tris-HCl supplemented with 50 μM MgCl2 and 0.05% bovine serum albumin. In order to determine non-specific binding, 100 μmol./l of naloxone were additionally added. When the ninety-minute incubation time was complete, the microtitre plates were centrifuged off for 20 minutes at 1000 g and the radioactivity was measured in a β-counter (Microbeta-Trilux, PerkinElmer, Freiburg, Germany). The percentage displacement of the radioactive ligand from its binding to the human μ-opiate receptor at a concentration of the test substances of 1 μmol./l was determined and stated as the percentage inhibition of specific binding. […] Ki values for the test substances were obtained by conversion by means of the Cheng-Prusoff equation (Cheng and Prusoff 1973).

NA reuptake = biological target: T2, NA reuptake (Rattus norvegicus, UniProt Q63380); assay: Inhibition of NA reuptake in rat brain synaptosomes (hypothalamus, P2 fraction); type: biochemical; settings: for inhibition at 10 µM: 10 μmol./l
T2 construct: isolated from the hypothalamus of male rat brains; from tissue; host or cells: rat brain synaptosomes (P2 fraction), hypothalamus of male rats
Protocol: In order to be able to carry out these in vitro studies, synaptosomes were freshly isolated from areas of rat brain. A so-called “P2” fraction was used in each case, which was prepared exactly according to the procedure of Gray, E. G. and Whittaker, V. P. (1962, J. Anat. […], 79-88). For NA reuptake, these vesicular particles were isolated from the hypothalamus of male rat brains, and for 5HT reuptake, they were isolated from the medulla+pons region.
IC50 values were obtained thereby which can be converted into inhibitor constants (Ki) according to the “Cheng-Prusoff equation” (Cheng, Y. C. and Prusoff, W. H., 1973, Biochem. Pharmacol. 22, 3099-3108). The IC50 values were obtained with the aid of the “Figure P” computer program (Version 6.0, Biosoft, Cambridge, England). Km values were calculated according to Lineweaver, H. and Burk, D. (1934, J. Am. Chem. Soc. 56, 658-666). The “Ligand” computer program (Version 4, Biosoft, England) was used to show KD values.

5-HT reuptake = 5-HT reuptake (Rattus norvegicus, UniProt P31652); assay: biochemical
Description: In order to be able to carry out these in vitro studies, synaptosomes were freshly isolated from areas of rat brain. […] For NA reuptake, these vesicular particles were isolated from the hypothalamus of male rat brains, and for 5HT reuptake, they were isolated from the medulla+pons region.
The IC50 values were obtained with the aid of the “Figure P” computer program (Version 6.0, Biosoft, Cambridge, England). […] The “Ligand” computer program (Version 4, Biosoft, England) was used to show KD values.

rat = assay: Formalin test in the rat (phase 2, chronic pain component); type: in vivo
Protocol: as §1
Formalin was administered subcutaneously in a volume of 50 μl and a concentration of 5% into the dorsal side of the right rear paw of each animal. The specific behavioural changes, such as lifting and shaking of the paw, weight shifting of the animal and biting and licking reactions, were observed and recorded over an observation period of from 21 to 27 minutes after the formalin injection. The various behaviours were combined to give the so-called pain rate (PR) which, based on 3-minute intervals, represents the calculation of a mean nociceptive reaction. The PR was calculated on the basis of a numerical weighting (=in each case factor 1, 2, 3) of the observed behaviours (corresponding to behaviour score 1, 2, 3) and was calculated using the following formula:
The size of the group was 10 animals (n=10).
as §2

[1] = inhibition of specific [3H]-naloxone binding
[2] = rat synaptosomes, Cheng-Prusoff
[3] = Cheng-Prusoff from IC50, [3H]-naloxone 1 nmol./l, read-out: μ-Opioid receptor affinity, Ki

5-HT reuptake, sequence (P31652 whole entry): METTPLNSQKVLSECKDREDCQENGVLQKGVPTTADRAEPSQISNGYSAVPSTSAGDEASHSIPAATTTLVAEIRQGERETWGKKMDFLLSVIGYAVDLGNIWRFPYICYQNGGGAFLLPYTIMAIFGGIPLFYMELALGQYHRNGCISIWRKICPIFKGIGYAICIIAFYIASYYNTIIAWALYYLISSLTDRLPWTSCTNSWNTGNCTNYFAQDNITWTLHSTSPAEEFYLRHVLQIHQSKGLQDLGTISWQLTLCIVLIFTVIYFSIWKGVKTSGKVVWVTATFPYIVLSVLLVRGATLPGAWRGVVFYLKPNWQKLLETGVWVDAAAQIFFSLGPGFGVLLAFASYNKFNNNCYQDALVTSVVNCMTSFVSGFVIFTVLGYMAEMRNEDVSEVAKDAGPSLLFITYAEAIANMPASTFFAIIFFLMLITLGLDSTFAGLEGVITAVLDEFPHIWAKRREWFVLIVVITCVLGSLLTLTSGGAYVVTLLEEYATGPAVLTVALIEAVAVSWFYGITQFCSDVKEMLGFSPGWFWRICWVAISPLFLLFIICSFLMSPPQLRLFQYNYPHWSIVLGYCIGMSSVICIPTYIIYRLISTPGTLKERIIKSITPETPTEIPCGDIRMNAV
T1 sequence (P35372 whole entry): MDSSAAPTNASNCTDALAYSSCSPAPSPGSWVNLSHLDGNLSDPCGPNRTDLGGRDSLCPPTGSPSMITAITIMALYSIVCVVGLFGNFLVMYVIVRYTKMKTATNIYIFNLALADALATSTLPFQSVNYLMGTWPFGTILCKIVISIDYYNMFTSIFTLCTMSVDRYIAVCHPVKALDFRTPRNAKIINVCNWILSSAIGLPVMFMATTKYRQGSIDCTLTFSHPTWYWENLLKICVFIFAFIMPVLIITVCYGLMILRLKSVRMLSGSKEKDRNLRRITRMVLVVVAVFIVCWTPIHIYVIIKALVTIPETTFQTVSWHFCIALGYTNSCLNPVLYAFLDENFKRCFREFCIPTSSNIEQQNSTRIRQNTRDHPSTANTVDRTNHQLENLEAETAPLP
T2 sequence (Q63380 1-617): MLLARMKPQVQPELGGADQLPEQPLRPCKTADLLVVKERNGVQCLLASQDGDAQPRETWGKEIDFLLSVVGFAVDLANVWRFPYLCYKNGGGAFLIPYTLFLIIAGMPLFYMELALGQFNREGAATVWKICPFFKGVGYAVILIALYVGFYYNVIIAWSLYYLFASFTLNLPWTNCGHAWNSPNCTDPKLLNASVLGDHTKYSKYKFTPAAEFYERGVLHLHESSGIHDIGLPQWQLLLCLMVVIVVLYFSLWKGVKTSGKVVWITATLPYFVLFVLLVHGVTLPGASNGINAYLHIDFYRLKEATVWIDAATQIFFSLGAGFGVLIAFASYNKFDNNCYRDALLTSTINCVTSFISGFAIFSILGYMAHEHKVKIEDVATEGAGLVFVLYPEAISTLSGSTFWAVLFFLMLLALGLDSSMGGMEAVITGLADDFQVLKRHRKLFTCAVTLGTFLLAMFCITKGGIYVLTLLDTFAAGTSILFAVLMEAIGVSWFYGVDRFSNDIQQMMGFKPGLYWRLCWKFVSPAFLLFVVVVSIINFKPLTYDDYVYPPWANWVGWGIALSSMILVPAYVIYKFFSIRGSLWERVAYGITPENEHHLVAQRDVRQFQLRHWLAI

`COc1ccc(C(CN(C)C)C2(O)CCCCC2)cc1` (stereo not shown) [Venlafaxin, venlafaxin, reference compound] was tested, and the “Inhibition of the nociceptive behaviour versus control, ED50 value” (mouse; i.v., phase 2, regression analysis) was 2.60 mg/kg and the “μ-Opioid receptor affinity (% inhibition at 1 μmol./l)” value (human μ-opiate receptor; [1]) was −1%.
With `CN(C)CC1=C(c2cccnc2)c2ccccc2CCC1` [Example 12, dimethyl-(5-pyridin-3-yl-8,9-dihydro-7H-benzocyclohepten-6-ylmethyl)-amine] the inhibition at 10 µM (NA reuptake) was 20%, the Ki (5-HT reuptake; [2]) was 120 nM and the “Inhibition of the nociceptive behaviour versus control (% inhibition)” value (“Inhibition … (% inhibition)” below) (mouse; 14.7 mg/kg i.v., phase 2) was −45.8%. The Ki (human μ-opiate receptor; [3]) was 380 nM.
`COc1ccc2c(c1)CC(CN(C)C)C2(O)c1cccnc1` (stereo not shown) [Example 5, 2-dimethylaminomethyl-5-methoxy-1-pyridin-3-yl-indan-1-ol] was tested, and the inhibition at 10 µM (NA reuptake) was 29%, the “Inhibition … (% inhibition)” value (rat; 21.5 mg/kg i.v., phase 2) was −43.0% and the Ki (5-HT reuptake; [2]) was 170 nM. The inhibition at 1 µM (human μ-opiate receptor; 1.5 h, read-out: μ-Opioid receptor affinity (% inhibition at 1 μmol./l), 1 μmol./l test substance, inhibition of specific [3H]-naloxone binding) was 49%.
`CN(C)CC1CCSc2ccccc2C1(O)c1cccnc1` (stereo not shown) [Example 14, 4-dimethylaminomethyl-5-pyridin-3-yl-2,3,4,5-tetrahydro-benzo[b]thiepin-5-ol] was tested, and the “Inhibition of NA reuptake (% inhibition at 10 μmol./l)” value (NA reuptake) was 54%, the “Inhibition … (% inhibition)” value (rat; 21.5 mg/kg i.v., phase 2, 21.5 mg/kg) was −53.2% and the “Inhibition of 5-HT reuptake (% inhibition at 10 μmol./l)” value (5-HT reuptake; rat synaptosomes) was 44%. For the same compound, the “μ-Opioid receptor affinity (% inhibition at 1 μmol./l)” value (human μ-opiate receptor; [1]) was −14%.
`CN(C)CC1=C(c2cccnc2)c2ccccc2CC1` [Example 9, dimethyl-(1-pyridin-3-yl-3,4-dihydro-naphthalen-2-ylmethyl)-amine] was tested, and the inhibition at 10 µM (NA reuptake) was 26%, the “Inhibition … (% inhibition)” value (rat; 10 mg/kg i.v., phase 2) was −97.0% and the inhibition at 10 µM (5-HT reuptake; read-out: Inhibition of 5-HT reuptake (% inhibition at 10 μmol./l), 10 μmol./l, rat synaptosomes) was 56%. The Ki (human μ-opiate receptor; [3]) was 560 nM.
`COc1ccc2c(c1)CC(CN(C)C)=C2c1cccnc1` [Example 6, (6-methoxy-3-pyridin-3-yl-1H-inden-2-ylmethyl)-dimethyl-amine] was tested, and the inhibition at 10 µM (NA reuptake) was 31%, the Ki (5-HT reuptake; [2]) was 28 nM and the ED50 (mouse; phase 2, regression analysis) was 1.64 mg/kg. The Ki (human μ-opiate receptor) was 150 nM.
In the case of `CN(C)CC1=C(c2cccnc2)c2ccc(O)cc2C1` [Example 7, 2-dimethylaminomethyl-1-pyridin-3-yl-3H-inden-5-ol], the inhibition at 10 µM (NA reuptake) is reported as 59%, the ED50 (rat; iv, phase 2, regression analysis, read-out: Inhibition of the nociceptive behaviour versus control, ED50 value) is reported as 2.93 mg/kg and the Ki (5-HT reuptake) is reported as 25 nM. The Ki (human μ-opiate receptor; [3]) was 380 nM.
In the case of `CN(C)CC1=C(c2cccnc2)c2ccccc2C1` [Example 3, dimethyl-(3-pyridin-3-yl-1H-inden-2-ylmethyl)-amine], the inhibition at 10 µM (NA reuptake) is reported as 30%, the Ki (5-HT reuptake; [2]) is reported as 13 nM and the ED50 (mouse; phase 2, regression analysis) is reported as 3.32 mg/kg. It also gave a Ki (human μ-opiate receptor) of 240 nM.
With `CN(C)CC1Cc2ccccc2C1(O)c1cccnc1` (single isomer, unassigned) [Example 2, 2-dimethylaminomethyl-1-pyridin-3-yl-indan-1-ol] the “Inhibition of NA reuptake (% inhibition at 10 μmol./l)” value (NA reuptake) was 43%, the “Inhibition … (% inhibition)” value (rat; 46.4 mg/kg i.v., phase 2) was −80.6% and the “Inhibition of 5-HT reuptake (% inhibition at 10 μmol./l)” value (5-HT reuptake; rat synaptosomes) was 89%. The “μ-Opioid receptor affinity (% inhibition at 1 μmol./l)” value (human μ-opiate receptor; [1]) was 60%.
